According to patent publication US8350027B2, “Dual-acting pyrazole antihypertensive agents” (Theravance, Inc., priority 2009, dated 2013):

Columns and labels:
human AT1 receptor = target: T1, human AT1 receptor (Homo sapiens, UniProt P30556); test: AT1 radioligand binding assay (displacement of [Eu]AngII); conditions: membranes of CHO-K1 cells expressing cloned human AT1 receptor; values given as lower bounds; read-out: AT1 pKi (converted)
T1 construct: expressed in transfected cells; host or cells: CHO-K1
T1 sequence (P30556 1-359): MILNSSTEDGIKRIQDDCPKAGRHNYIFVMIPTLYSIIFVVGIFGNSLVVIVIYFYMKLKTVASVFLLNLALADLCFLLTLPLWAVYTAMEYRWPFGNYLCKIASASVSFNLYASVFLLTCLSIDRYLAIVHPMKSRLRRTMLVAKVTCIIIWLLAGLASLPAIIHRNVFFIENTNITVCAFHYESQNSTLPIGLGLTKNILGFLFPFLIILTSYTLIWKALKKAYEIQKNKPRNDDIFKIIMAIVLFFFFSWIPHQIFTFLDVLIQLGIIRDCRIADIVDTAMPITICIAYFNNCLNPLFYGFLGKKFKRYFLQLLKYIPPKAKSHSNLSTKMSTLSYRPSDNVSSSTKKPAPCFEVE
In short: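 Membranes from CHO-K1 cells stably expressing cloned human AT1, 0.2 μg protein, in 50 mM Tris/HCl pH 7.5, 5 mM MgCl2, 0.025% BSA. Compounds displaced [Eu]AngII over 120 min in the dark at room temperature or 37° C; filter-bound TRF read. Nonspecific binding with 10 μM angiotensin II; IC50 converted to Ki via Cheng-Prusoff, reported as pKi.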

NEP enzyme = target: T2, NEP enzyme (Homo sapiens, UniProt P08473); test: NEP enzyme inhibition assay (fluorogenic peptide substrate); assay type: biochemical; conditions: values given as lower bounds; * = prodrugs, may not exhibit NEP activity in an in vitro assay; read-out: NEP pIC50 (converted)
T2 construct: purchased R&D Systems, Minneapolis, Minn; 1182-ZN
T2 sequence (P08473 52-750 limits assumed): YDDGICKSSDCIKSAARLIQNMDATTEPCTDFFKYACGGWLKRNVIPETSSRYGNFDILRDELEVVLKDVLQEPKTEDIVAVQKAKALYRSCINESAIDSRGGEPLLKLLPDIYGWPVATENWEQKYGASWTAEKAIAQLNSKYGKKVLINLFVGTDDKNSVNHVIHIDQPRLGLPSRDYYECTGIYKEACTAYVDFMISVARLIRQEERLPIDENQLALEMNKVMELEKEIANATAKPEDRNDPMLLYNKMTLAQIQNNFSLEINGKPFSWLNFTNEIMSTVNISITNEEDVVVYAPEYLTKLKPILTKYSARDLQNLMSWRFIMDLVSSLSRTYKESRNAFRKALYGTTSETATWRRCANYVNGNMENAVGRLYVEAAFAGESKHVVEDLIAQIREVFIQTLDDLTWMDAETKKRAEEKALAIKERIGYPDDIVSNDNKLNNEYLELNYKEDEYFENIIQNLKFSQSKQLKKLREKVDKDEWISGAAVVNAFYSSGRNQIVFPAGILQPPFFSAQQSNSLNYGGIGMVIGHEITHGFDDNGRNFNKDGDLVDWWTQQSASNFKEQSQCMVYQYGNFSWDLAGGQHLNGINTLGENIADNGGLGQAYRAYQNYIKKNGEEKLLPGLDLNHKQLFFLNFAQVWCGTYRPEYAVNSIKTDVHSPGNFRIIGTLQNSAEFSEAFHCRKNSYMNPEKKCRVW
In short: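 Recombinant human NEP was run with Mca-BK2 (10 μM) at room temperature in Tris buffer with 1 μM Zn. Compounds (10 μM–20 pM, 12 points) were pre-equilibrated 10 min, then reacted 20 min and acid-stopped. Fluorescence ex 320/em 405 nm, one-site competition fit gives pIC50. Thiol compounds may be pre-treated with 400 μM TCEP.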

Row | Ki (human AT1 receptor) [nM] | IC50 (NEP enzyme) [nM] | SMILES
1 | ≤ 10 | ≤ 10000 | CCCc1cc(C(=O)N[C@@H](CC(=O)O)Cc2ccccc2)nn1Cc1ccc(-c2ccccc2S(=O)(=O)NC(C)=O)cc1 [Example 6-28, (R)-3-{[1-(2′-Acetylsulfamoylbiphenyl-4-ylmethyl)-5-propyl-1H-pyrazole-3-carbonyl]amino}-4-phenylbutyric acid]
2 | ≤ 10 | ≤ 100 | CCCc1cc(C(=O)N[C@H](Cc2ccccc2)[C@@H](O)C(=O)O)nn1Cc1ccc(-c2ccccc2S(=O)(=O)NC(C)=O)cc1 [Example 4, (2R,3R)-3-(1-((2′-(N-Acetylsulfamoyl)biphenyl-4-yl)methyl)-5-propyl-1H-pyrazole-3-carboxamido)-2-hydroxy-4-phenylbutanoic Acid]
3 | ≤ 10 | ≤ 100 | CCOc1cc(C(=O)N[C@@H](CS)Cc2ccccc2)nn1Cc1ccc(-c2ccccc2S(=O)(=O)NC(C)=O)cc1 [Example 6-2, 1-(2′-Acetylsulfamoyl-biphenyl-4-ylmethyl)-5-ethoxy-1H-pyrazole-3-carboxylic acid ((R)-1-benzyl-2-mercaptoethyl)amide]
4 | ≤ 10 | ≤ 100 | CCCc1cc(C(=O)N[C@H](Cc2ccccc2Cl)[C@@H](O)C(=O)O)nn1Cc1ccc(-c2ccccc2S(=O)(=O)NC(C)=O)cc1 [Example 6-9, (2R,3R)-3-{[1-(2′-Acetylsulfamoylbiphenyl-4-ylmethyl)-5-propyl-1H-pyrazole-3-carbonyl]-amino}-4-(2-chlorophenyl)-2-hydroxy-butyric acid]
5 | ≤ 100 | ≤ 100 | CCCc1cc(C(=O)N[C@H](Cc2ccccc2)[C@@H](O)C(=O)O)nn1Cc1ccc(-c2ccccc2S(=O)(=O)NC(=O)N2CCOCC2)cc1 [Example 7-22, (2R,3R)-2-Hydroxy-3-[(1-{2′-[(morpholine-4-carbonyl)sulfamoyl]biphenyl-4-ylmethyl}-5-propyl-1H-pyrazole-3-carbonyl)amino]-4-phenylbutyric acid]
6 | ≤ 100 | ≤ 100 | CCCc1cc(C(=O)N[C@H](Cc2ccccc2)[C@@H](O)C(=O)O)nn1Cc1c(F)cc(-c2ccccc2-c2nnn[nH]2)cc1F [Example 3-26, (2R,3R)-3-(1-((3,5-difluoro-2′-(1H-tetrazol-5-yl)biphenyl-4-yl)methyl)-5-propyl-1H-pyrazole-3-carboxamido)-2-hydroxy-4-phenylbutanoic acid]
7 | ≤ 10 | ≤ 100 | CCCc1cc(C(=O)N[C@@H](CC(=O)O)Cc2ccccc2Cl)nn1Cc1ccc(-c2ccccc2-c2nnn[nH]2)nc1 [Example 10, (R)-4-(2-Chlorophenyl)-3-[(5-propyl-1-{6-[2-(1H-tetrazol-5-yl)phenyl]pyridin-3-ylmethyl}-1H-pyrazole-3-carbonyl)amino]butyric Acid]
8 | ≤ 10 | ≤ 100 | CCCc1cc(C(=O)N[C@H](Cc2ccccc2)[C@@H](O)C(=O)O)nn1Cc1ccc(-c2ccccc2S(=O)(=O)NC(C)=O)c(F)c1 [Example 6-7, (2R,3R)-3-{[1-(2′-Acetylsulfamoyl-2-fluorobiphenyl-4-ylmethyl)-5-propyl-1H-pyrazole-3-carbonyl]amino}-2-hydroxy-4-phenylbutyric acid]
9 | ≤ 100 | ≤ 1000 | CCOc1cc(C(=O)N[C@H](Cc2ccccc2)[C@@H](O)C(=O)O)nn1Cc1ccc(-c2ccccc2S(=O)(=O)NC(C)=O)cc1 [Example 6-3, (2R,3R)-3-{[1-(2′-Acetylsulfamoylbiphenyl-4-ylmethyl)-5-ethoxy-1H-pyrazole-3-carbonyl]amino}-2-hydroxy-4-phenyl-butyric acid]
10 | ≤ 10 | ≤ 10000 | CCCc1cc(C(=O)N[C@@H](CC(=O)OC)Cc2ccccc2Cl)nn1Cc1ccc(-c2ccccc2-c2nnn[nH]2)cc1 [Example 3-28, (R)-4-(2-Chlorophenyl)-3-({5-propyl-1-[2′-(1H-tetrazol-5-yl)biphenyl-4-ylmethyl]-1H-pyrazole-3-carbonyl}amino)butyric acid methyl ester]
11 | ≤ 10 | ≤ 100 | CCCc1cc(C(=O)N[C@H](Cc2ccccc2)[C@@H](O)C(=O)O)nn1Cc1ccc(-c2ccccc2-n2nn[nH]c2=O)cc1 [Example 16-3, (2R,3R)-2-Hydroxy-3-({1-[2′-(5-oxo-4,5-dihydrotetrazol-1-yl)-biphenyl-4-ylmethyl]-5-propyl-1H-pyrazole-3-carbonyl}amino)-4-phenylbutyric acid]
12 | ≤ 10 | ≤ 100 | CCCc1cc(C(=O)N[C@@H](CC(=O)O)Cc2ccccc2C(F)(F)F)nn1Cc1ccc(-c2ccccc2-c2nnn[nH]2)nc1 [Example 11, (R)-3-[(5-Propyl-1-{6-[2-(1H-tetrazol-5-yl)-phenyl]-pyridin-3-ylmethyl}-1H-pyrazole-3-carbonyl)-amino]-4-(2-trifluoromethylphenyl)butyric Acid]
13 | ≤ 100 | ≤ 1000 | CCCc1cc(C(=O)N[C@@H](CC(=O)O)Cc2ccccc2Cl)nn1Cc1ccc(-c2ccccc2S(=O)(=O)NC(C)=O)cn1 [Example 15-4, (R)-3-({1-[5-(2-Acetylsulfamoylphenyl)pyridin-2-ylmethyl]-5-propyl-1H-pyrazole-3-carbonyl}amino)-4-(2-chlorophenyl)butyric acid]
14 | ≤ 10 | ≤ 100 | CCCc1cc(C(=O)N[C@H](Cc2ccccc2)[C@@H](O)C(=O)O)nn1Cc1ccc(-c2ccccc2-c2nnn[nH]2)cc1F [Example 3-23, (2R,3R)-3-(1-((3-fluoro-2′-(1H-tetrazol-5-yl)biphenyl-4-yl)methyl)-5-propyl-1H-pyrazole-3-carboxamido)-2-hydroxy-4-phenylbutanoic acid]
15 | ≤ 10 | ≤ 100 | CCCc1cc(C(=O)N[C@H](Cc2ccccc2)CN(O)C=O)nn1Cc1ccc(-c2ccccc2S(=O)(=O)NC(C)=O)cc1 [Example 6-13, 1-(2′-Acetylsulfamoyl-biphenyl-4-ylmethyl)-5-propyl-1H-pyrazole-3-carboxylic acid [(R)-1-benzyl-2-(formyl-hydroxy-amino)-ethyl]amide]
16 | ≤ 100 | ≤ 100 | CCCc1cc(C(=O)N[C@@H](CS)CC(C)C)nn1Cc1ccc(-c2ccccc2-c2nnn[nH]2)cc1F [Example 3-3, 1-[3-Fluoro-2′-(1H-tetrazol-5-yl)biphenyl-4-ylmethyl]-5-propyl-1H-pyrazole-3-carboxylic acid ((R)-1-mercaptomethyl-3-methylbutyl)amide]
17 | ≤ 10 | ≤ 100 | CCCc1cc(C(=O)N[C@@H](CS)Cc2ccccc2)nn1Cc1ccc(-c2ccccc2-c2nnn[nH]2)cc1 [Example 3-6, 5-Propyl-1-[2′-(1H-tetrazol-5-yl)biphenyl-4-ylmethyl]-1H-pyrazole-3-carboxylic acid ((R)-1-benzyl-2-mercaptoethyl)amide]
18 | ≤ 10 | ≤ 100 | CCCc1cc(C(=O)N[C@@H](CC(=O)O)Cc2ccccc2F)nn1Cc1ccc(-c2ccccc2-c2nnn[nH]2)nc1 [Example 12, (R)-4-(2-Fluorophenyl)-3-[(5-propyl-1-{6-[2-(1H-tetrazol-5-yl)phenyl]pyridin-3-ylmethyl}-1H-pyrazole-3-carbonyl)amino]butyric acid]
19 | ≤ 10 | ≤ 100 | CCCc1cc(C(=O)N[C@H](Cc2ccccc2)[C@@H](O)C(=O)O)nn1Cc1cnc(-c2ccccc2-c2nnn[nH]2)cn1 [Example 17-3, (2R,3R)-3-(1-((5-(2-(1H-tetrazol-5-yl)phenyl)pyrazin-2-yl)methyl)-5-propyl-1H-pyrazole-3-carboxamido)-2-hydroxy-4-phenylbutanoic acid]
20 | ≤ 10 | ≤ 100 | CCCc1cc(C(=O)N[C@H](Cc2ccccc2)[C@H](O)C(=O)O)nn1Cc1ccc(-c2ccccc2-c2nnn[nH]2)nc1 [Example 14-9, (2S,3R)-2-Hydroxy-4-phenyl-3-[(5-propyl-1-{6-[2-(1H-tetrazol-5-yl)phenyl]pyridin-3-ylmethyl}-1H-pyrazole-3-carbonyl)amino]butyric acid]
21 | ≤ 10 | ≤ 1000 | CCCc1cc(C(=O)N[C@@H](CC(=O)O)Cc2ccccc2Cl)nn1Cc1ccc(-c2ccccc2-n2nn[nH]c2=O)cc1 [Example 16-5, (R)-4-(2-Chlorophenyl)-3-({1-[2′-(5-oxo-4,5-dihydrotetrazol-1-yl)-biphenyl-4-ylmethyl]-5-propyl-1H-pyrazole-3-carbonyl}amino)butyric acid]
22 | ≤ 10 | ≤ 100 | CCCc1cc(C(=O)N[C@@H](CC(=O)O)Cc2ccsc2)nn1Cc1ccc(-c2ccccc2-c2nnn[nH]2)nc1 [Example 14-10, (R)-3-[(5-Propyl-1-{6-[2-(1H-tetrazol-5-yl)-phenyl]-pyridin-3-ylmethyl}-1H-pyrazole-3-carbonyl)-amino]-4-thiophen-3-yl-butyric acid]
